Test results as given in US6218419A, “Aminoiminoquinone and aminoquinone alkaloid compounds and methods of use” (priority 1999, dated 2001).
In brackets after ≈: the same amount, converted by molar mass.

What was measured:
[1] = test system: allogeneic immune responsiveness (MLR); experiment: Two-way mixed lymphocyte reaction (MLR); format: cell-based
Text: (§1) These assays measure the ability of the extracts/pure compounds to inhibit allogeneic immune responsiveness (MLR) and to affect the viability of unstimulated lymphocytes. These general methods are described in the following: Longley, R. E., D. Caddigan, D. Harmody, M. Gunasekera and S. P. Gunasekera (1991) Transplantation 52: 650-656.

Calcineurin = biological target: T1, Calcineurin (Bos taurus, UniProt P48452); experiment: Calcineurin phosphatase assay (pNPP); format: biochemical, bovine; details: for inhibition at 0.5 µg/mL / inhibition at 5 µg/mL: 1 h, read-out: CaN, I; for inhibition at 0.5 µg/mL: at 0.5 μg/ml; for inhibition at 5 µg/mL: at 5 μg/ml; for IC50: pure compound, read-out: CaN, IC50 (converted)
T1 construct: Calcineurin was prepared from bovine brain; from tissue; host or cells: bovine brain
Procedure: Calcineurin activity was assayed in 96-well microtiter plates in a final volume of 50 μl. Each well contained 50 mM Tris-HCI pH 7.5, 0.5 mM MnCl2, 0.05 mM CaCl2, 1 mM DTT, 50 mM p-nitrophenylphosphate (pNPP), 0.3 μg calcineurin, a five-fold excess of calmodulin, and either test samples or control compounds. Plates were incubated at 30° C. for 60 min. Liberated p-nitrophenol was determined by the change in absorbance at 405 nm.

unstimulated lymphocytes = experiment: Lymphocyte viability (LCV) testing; format: cell-based
Text: as §1

CPP32 = biological target: T2, CPP32 (Homo sapiens, UniProt P42574); experiment: CPP32 enzyme assay; format: biochemical
T2 construct: purchased BASF, Worcester, Mass
T2 sequence (P42574 29-175 limits assumed): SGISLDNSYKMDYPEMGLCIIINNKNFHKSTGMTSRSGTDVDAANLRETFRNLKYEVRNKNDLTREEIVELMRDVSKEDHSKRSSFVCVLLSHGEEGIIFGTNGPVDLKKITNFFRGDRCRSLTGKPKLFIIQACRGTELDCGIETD
T2 sequence (P42574 176-277 limits assumed): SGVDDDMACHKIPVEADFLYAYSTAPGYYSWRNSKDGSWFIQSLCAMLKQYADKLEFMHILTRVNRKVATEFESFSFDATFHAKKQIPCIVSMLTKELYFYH
Procedure: (§2) Each of the following assays were performed using either a Tecan 8051 or a Tecan Megaflex automated liquid handling system. Extracts of marine organisms were tested at 5 μg/ml for all assays except DPP IV and LAR which were tested at 50 μg/ml. The inhibition of enzyme activity found in the presence of extract was compared to that of an uninhibited control. Extracts which inhibited the enzyme>50% were retested in triplicate to confirm activity.
Test samples were aliquoted into 96 well microtiter plates and allowed to air dry. The stock CPP32 enzyme (BASF, Worcester, Mass.) was diluted by adding 10 μl of the enzyme to 17 ml of reaction buffer (50 mM Hepes pH 7.5; 10% glyccrol; 5 mM Dithiothreitol; 0.5 mM EDTA). A volume of 180 μl of the diluted enzyme was added to wells containing the dried test samples, or to empty wells (control). The contents of the microtiter wells were mixed by shaking on a plate shaker. Plates were incubated at 30° C. for 5 minutes. […] Controls for each plate consisted of an inhibitor control (50 nM DEVD-CHO final concentration); positive control (enzyme and substrate) and negative control (reaction buffer substrate). The plates were covered with aluminum foil and mixed using a plate shaker for 5 min. then incubated at 30° C. for 30 minutes. Plates were read using a plate reader with absorbance measured at 405 nm. Data was expressed as percent inhibition by comparing the absorbance values of test samples with those of the positive control (no sample).

ICE = biological target: T3, ICE (Homo sapiens, UniProt P29466); experiment: ICE enzyme assay; format: biochemical
T3 construct: purchased BASF, Worcester, Mass
T3 sequence (P29466 120-297 limits assumed): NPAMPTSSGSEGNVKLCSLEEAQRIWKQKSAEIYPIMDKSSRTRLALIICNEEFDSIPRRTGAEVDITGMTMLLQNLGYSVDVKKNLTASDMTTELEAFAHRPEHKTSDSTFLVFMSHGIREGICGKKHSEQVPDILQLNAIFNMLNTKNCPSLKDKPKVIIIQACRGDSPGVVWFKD
T3 sequence (P29466 317-404 limits assumed): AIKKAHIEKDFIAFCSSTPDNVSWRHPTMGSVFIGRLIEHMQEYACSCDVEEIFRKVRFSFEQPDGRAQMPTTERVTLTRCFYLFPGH
Procedure: as §2
Test samples were aliquoted into 96 well microtiter plates and allowed to air dry. Stock ICE enzyme (supplied by BASF, Worcester, Mass.) was diluted in reaction buffer (50 mM Hepes pH 7.5, 10% glycerol, 5 mM dithiothreitol,0.5 mM EDTA and 5 mM β-mercaptoethanol) to a concentration that yielded a minimum increase of 0.1 optical density units after 30 minutes of reaction time. Diluted ICE enzyme was incubated at room temperature for 5 minutes prior to aliquoting 180 μl into each sample well. The plates were incubated at 30° C. for 5 minutes following a brief mixing of the well contents by shaking on a plate shaker. A volume of 20 μl of the enzyme substrate (Ac-YVAD-pNA) was added to each well resulting in a final concentration of 50 μM. […] Plates were read on a plate reader with absorbance measured at 405 nm. Data was expressed as percent inhibition by comparing the absorbance values of test samples with those of the positive control (no sample).

[2] = test system: A549 human lung adenocarcinoma; experiment: A549 in vitro anti-tumor testing (MTT); format: cell-based
Procedure: (§3) P388 cells can be obtained from the National Cancer Institute, Bethesda, Md., and A549 cells can be obtained from American Type Culture Collection, Rockville, Md. All cell lines are maintained in Roswell Park Memorial Institute (RPMI) medium 1640 supplemented with 10% bovine calf serum. All cell lines are cultured in plastic tissue culture flasks and kept in an incubator at 37° C. in humidified air containing 5% CO2. Prior to testing, antibiotic-free stock cultures of each of the cell lines are subcultured to 10^6 cells/ml by dilution in fresh growth medium at 2 to 3 day intervals.
Similar procedures are utilized for A549 cells which require an additional 48 hr exposure prior to MTT addition. Results are expressed as percent inhibition compared to the negative (no drug) control. Positive drug controls are included to monitor drug sensitivity of each of the cell lines. These include varying dilutions of 5-fluorouracil, adriamycin, methotrexate and vinblastine.
(§4) To quantitate the effects on cell proliferation and resulting IC50 values, 75 μl of warm growth media containing 5 mg/ml MTT is added to each well, cultures are returned to the incubator, and left undisturbed for 90 minutes. […]

Aminopeptidase N (CD13) = biological target: T4, Aminopeptidase N (CD13) (Homo sapiens, UniProt P15144); experiment: Aminopeptidase N (CD13) ELISA capture enzyme assay; format: biochemical; details: 18 h; at 5 μg/ml; read-out: ApN, I
T4 construct: The source of Aminopeptidase N was the KG-1 cell line; endogenous in cells; host or cells: KG-1 cell lysate
Procedure: as §2
Aminopeptidase N was assayed using an Enzyme-Linked Immunosorbant (ELISA) capture assay. Briefly, 96-well plates were coated with goat anti-mouse immunoglobulins (Sigma #M4169). Following an overnight incubation the plates were washed three times with PBS-0.1% Triton X-100. The secondary (capture) antibody was then added to the plate (100 μl/well, 3.7 μg/ml; antihuman MY7, Coulter Corporation) and incubated for 3 hours at room temperature. Plates were washed three times with PBS-0.1% Triton X-100. The source of Aminopeptidase N was the KG-1 cell line, 100 μl of an appropriate dilution of the KG-1 cell lysate was added to each well, incubated for 3 hours and then washed a final time. The enzyme assay was performed in PBS in a final volume of 200 μl with 200 μM ala-pNA as substrate and either test samples or controls. Liberated p-nitroaniline was determined by the change in absorbance at 405 nm following an 18 hr incubation at 37° C.

[3] = test system: EL-4.IL-2 murine lymphoma cells; experiment: EL-4 adherence testing; format: cell-based
Text: This assay is based on the properties of extracts/pure compounds which serve as protein kinase C (PKC) active agents to either induce or inhibit the adherence of EL-4.IL-2 murine lymphoma cells to plastic surfaces. The general methodology of this assay is described in detail in the following: Longley, R. E. and D. Harmody (1991) J. Antibiotics 44:93-102.

P388 murine leukemia = experiment: P388 in vitro anti-tumor testing (MTT); format: cell-based; details: Mus musculus, 48-hr exposure
Procedure: as §3
To assess the antiproliferative effects of agents against the P388 cell line, 200 μl cultures (96 well tissue culture plates, Nunc, Denmark) are established at 1×10^5 cells/ml in drug-free medium or medium containing the test agent at 10.0, 1.0, 0.10 and 0.010 μg/ml. The solvent for all dilutions is ethanol. All experimental cultures are initiated in medium containing Gentamycin sulfate (50 μg/ml; Schering Corporation, Kenilworth, N.J.). After 48-hr exposure, P388 cells are enumerated using 3-[4,5-Dimethylthiazol-2-yl]-2,5-diphenyltetrazolium bromide (MTT) as described below.
as §4

T4 sequence (P15144 whole entry): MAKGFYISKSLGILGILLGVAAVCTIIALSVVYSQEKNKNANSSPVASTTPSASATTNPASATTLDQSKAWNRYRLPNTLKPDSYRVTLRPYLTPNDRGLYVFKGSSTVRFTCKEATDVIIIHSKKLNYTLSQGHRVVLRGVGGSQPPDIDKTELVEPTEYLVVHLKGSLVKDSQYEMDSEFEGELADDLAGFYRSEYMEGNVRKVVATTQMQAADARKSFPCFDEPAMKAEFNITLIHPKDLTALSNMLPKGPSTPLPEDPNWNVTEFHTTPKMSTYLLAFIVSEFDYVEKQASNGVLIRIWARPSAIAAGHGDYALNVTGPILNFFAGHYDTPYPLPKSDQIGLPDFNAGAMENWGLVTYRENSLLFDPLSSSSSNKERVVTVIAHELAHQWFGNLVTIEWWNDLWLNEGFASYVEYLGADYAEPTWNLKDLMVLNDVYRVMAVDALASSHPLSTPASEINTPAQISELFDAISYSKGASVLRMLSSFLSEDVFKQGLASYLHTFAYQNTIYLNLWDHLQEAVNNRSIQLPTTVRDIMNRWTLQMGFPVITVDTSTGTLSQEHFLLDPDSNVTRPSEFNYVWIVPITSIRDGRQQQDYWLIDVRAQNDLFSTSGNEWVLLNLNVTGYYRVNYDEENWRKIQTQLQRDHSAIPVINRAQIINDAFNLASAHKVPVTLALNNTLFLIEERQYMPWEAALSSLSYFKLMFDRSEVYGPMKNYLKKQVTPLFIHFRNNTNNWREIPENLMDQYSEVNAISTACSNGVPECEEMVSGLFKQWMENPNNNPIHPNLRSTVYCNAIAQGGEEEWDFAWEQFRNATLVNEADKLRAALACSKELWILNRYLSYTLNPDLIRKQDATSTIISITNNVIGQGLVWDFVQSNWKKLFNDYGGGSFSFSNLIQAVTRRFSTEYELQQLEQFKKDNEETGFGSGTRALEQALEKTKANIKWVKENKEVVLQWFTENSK

Compound | IC50 [1] | inhibition at 0.5 µg/mL (Calcineurin) | inhibition at 5 µg/mL (Calcineurin) | IC50 (Calcineurin) | IC50 (unstimulated lymphocytes) | CPP32, IC50 (CPP32) | inhibition at 0.5 µg/mL (CPP32; 0.5 h, pH 7.5, at 0.5 μg/ml, read-out: CPP32, I) | inhibition at 5 µg/mL (CPP32; 0.5 h, pH 7.5, at 5 μg/ml, read-out: CPP32, I) | ICE inhibition (ICE) | IC50 [2] | inhibition at 5 µg/mL (Aminopeptidase N (CD13)) | EL-4 adherence [3] | IC50 (P388 murine leukemia)
N=C1C(Cl)=C(N)C(=O)c2[nH]cc(C(O)CO)c21 (stereo not drawn) [Secobatzelline A, secobatzelline A] | 0.68 mg/L (≈ 2.66 µM) | 46% | 75% | 2.15 µM | 1.4 mg/L (≈ 5.48 µM) | 0.02 mg/L | 76.2% | 86.5% | not detected | 0.04 mg/L | 54.9% | inh. adhesion | 0.06 mg/L
NC1=C(Cl)C(=O)c2c(C(O)CO)c[nH]c2C1=O (stereo not drawn) [Secobatzelline B, secobatzelline B] | – | 22% | 43% | 8.61 µM | – | – | – | – | – | 2.86 mg/L | – | – | 1.22 mg/L
